Source: publication PMC7555312, “Functional Characterization of Temporin-SHe, a New Broad-Spectrum Antibacterial and Leishmanicidal Temporin-SH Paralog from the Sahara Frog (Pelophylax saharicus)” (International Journal of Molecular Sciences, 2020)
Where no end group is shown, it is not given here.

Columns and labels:
L. ivanovii (Li4pVS2) = details: liquid growth inhibition (CLSI), 10^6 CFU/mL in brain heart infusion (BHI) medium, 37 °C, 18–20 h, OD 630 nm; mean of three independent experiments in triplicate
Description: Antibacterial activity of temporin-SHe was evaluated against Gram-positive bacteria including S. aureus strains (ATCC 25923, ST1065), antibiotic-resistant S. aureus strains (ATCC 43300, ATCC BAA-44), E. faecalis (ATCC 29212), B. megaterium, and L. ivanovii (Li4pVS2), and Gram-negative bacteria including E. coli strains (ATCC 25922, ATCC 35218, ML-35p), S. enterica (serotype Enteritidis), P. aeruginosa (ATCC 27853), A. baumannii (ATCC 19606) and K. pneumoniae (ATCC 13883). Antifungal activity was evaluated against C. albicans (ATCC 90028), C. parapsilosis (ATCC 22019) and S. cerevisiae. ATCC strains were purchased from American-Type Culture Collection (ATCC, Virginia, VA, USA). Antiparasitic activity was determined against promastigotes of several species of Leishmania responsible for visceral, cutaneous and mucocutaneous leishmaniases: L. infantum (strain MHOM/MA/67/ITMAP-263), L. major (strain MHOM/SU/73/5-ASKH), and L. braziliensis (strain MHOM/BR/75/M2904), respectively. Cytotoxicity was assessed against human red blood cells and THP-1 monocytes. Peripheral blood was obtained from healthy adult donors (Établissement Français du Sang, Paris, France). All donors signed informed consent allowing the use of their blood for research purposes.
Antimicrobial activity was assessed with a liquid growth inhibition assay performed according to a previously described protocol using the Clinical and Laboratory Standards Institute (CLSI) guidelines. Briefly, in 96-well microtitration plates, mid-log-phase bacteria diluted to 10^6 CFU/mL in Mueller–Hinton (MH) broth were added to different concentrations of synthetic temporin-SHe (1–200 µM, final concentrations) and incubated at 37 °C for 18–20 h, under shaking (150 rpm). For E. faecalis, L. ivanovii and yeasts/fungi, 10^6 CFU/mL suspensions were prepared in LB broth, brain heart infusion (BHI) medium and Yeast Peptone Dextrose (YPD) medium, respectively, and incubation was performed at 30 °C for yeasts/fungi. […] MIC values represent the average of three independent experiments, each performed in triplicate with negative (no peptide) and positive (formaldehyde 0.7%) controls.

human THP-1 monocytes = details: taken from literature; cited from earlier work
S. aureus = test system: S. aureus; set-up: method as in 3 sources, one per row (each row's own in cited_ref): ref 46 = [46]; PMID 14499272; doi:10.1016/S0196-9781(03)00193-1; 46. Ali M.F. Knoop F.C. Vaudry H. Conlon J.M. Characterization of novel antimicrobial peptides from the skins of frogs of the Rana esculenta complex Peptides 2003 24 955 961 10.1016/S0196-9781(03)0019 ||| ref 48 = [48]; PMID 28402481; doi:10.1093/abbs/gmx032; 48. Wang X. Ren S. Guo C. Zhang W. Zhang X. Zhang B. Li S. Ren J. Hu Y. Wang H. Identification and functional analyses of novel antioxidant peptides and antimicrobial peptides from skin secretions of ||| ref 49 = [49]; PMID 25066917; doi:10.1016/j.biochi.2014.07.013; 49. Guo C. Hu Y. Li J. Liu Y. Li S. Yan K. Wang X. Liu J. Wang H. Identification of multiple peptides with antioxidant and antimicrobial activities from skin and its secretions of Hylarana taipehensis; details: cited from earlier work
E. faecalis = test system: E. faecalis; set-up: method as in 2 sources, ref 48 = [48]; PMID 28402481; doi:10.1093/abbs/gmx032; 48. Wang X. Ren S. Guo C. Zhang W. Zhang X. Zhang B. Li S. Ren J. Hu Y. Wang H. Identification and functional analyses of novel antioxidant peptides and antimicrobial peptides from skin secretions of ||| ref 49 = [49]; PMID 25066917; doi:10.1016/j.biochi.2014.07.013; 49. Guo C. Hu Y. Li J. Liu Y. Li S. Yan K. Wang X. Liu J. Wang H. Identification of multiple peptides with antioxidant and antimicrobial activities from skin and its secretions of Hylarana taipehensis; details: cited from earlier work
Nocardia asteroides = test system: Nocardia asteroides; set-up: method as in 2 sources, ref 48 = [48]; PMID 28402481; doi:10.1093/abbs/gmx032; 48. Wang X. Ren S. Guo C. Zhang W. Zhang X. Zhang B. Li S. Ren J. Hu Y. Wang H. Identification and functional analyses of novel antioxidant peptides and antimicrobial peptides from skin secretions of ||| ref 49 = [49]; PMID 25066917; doi:10.1016/j.biochi.2014.07.013; 49. Guo C. Hu Y. Li J. Liu Y. Li S. Yan K. Wang X. Liu J. Wang H. Identification of multiple peptides with antioxidant and antimicrobial activities from skin and its secretions of Hylarana taipehensis; details: cited from earlier work
[1] = test system: Gram-negative bacteria (E. coli, P. aeruginosa, and K. pneumoniae); set-up: method as in PMID 28402481; details: cited from earlier work
[2] = test system: Candida species (C. albicans and C. glabrata); set-up: method as in PMID 28402481; details: cited from earlier work
E. coli = test system: E. coli; set-up: method as in PMID 14499272; details: cited from earlier work
L. mexicana amastigotes = details: cited from earlier work
Excerpt: Temporin-SHe represents an additional temporin with antiparasitic properties. This peptide was able to kill promastigote forms of the human parasite Leishmania, responsible for visceral (L. infantum), cutaneous (L. major) and muco-cutaneous (L. braziliensis) leishmaniasis. […] Until today, only six temporins (Ta, Tb, SHa, SHd, Tl and Tf) have been described as antiparasitic peptides and very few AMPs of other families are active against parasites (The Antimicrobial Peptide ...

FLPAALAGIGGILGKLF-NH2 [Temporin-SHd, reference compound]
MIC (L. ivanovii (Li4pVS2)): 10 µM
LC50 (lethal concentration 50) (human THP-1 monocytes): 66 µM

FLPFLAGLFGKIF-NH2 [Temporin-HB2, temporin isolated from the Hubei Frog Pelophylax hubeiensis]
MIC (S. aureus): 150 µM
MIC (E. faecalis): 19 µM
MIC (Nocardia asteroides): 75 µM
activity against Gram-negative bacteria [1]: No activity
activity against Candida species [2]: No activity

FLPLLFGALSTLLPKIF-NH2 [Temporin-TP3, temporin isolated from skin secretions of Hylarana taipehensis]
MIC (S. aureus): 25 µM
MIC (E. faecalis): 50 µM
MIC (Nocardia asteroides): 12.5 µM

FLPVIAGLLSKLF-NH2 [Temporin-1Ec, temporin isolated from Pelophylax lessonae/ridibundus]
MIC (S. aureus): 8 µM
MIC (E. coli): > 100 µM

FLSGIVGMLGKLF-NH2 [Temporin-SHa, 13-residue temporin-SH from Pelophylax saharicus]
less efficiency against L. mexicana amastigotes (compared with promastigotes) (L. mexicana amastigotes): approximately 10 fold
